Source: PubChem BioAssay AID248 (DTP/NCI, 2004)
Where “and” joins values, the source holds several entries; their conditions need not be identical. Equal entries are not always repeated. Inconclusive results and toxic doses are left out. No stated cut-off is given here; in the data, active means T/C of 150% or more; inactive means T/C below 125%.

Tested on: L1210 leukemia ip in BDF1 mice, survival T/C
Assay: NCI In Vivo Anticancer Drug Screen. Data for tumor model L1210 Leukemia (intraperitoneal) in B6D2F1 (BDF1) mice
Settings: endpoint: mean survival time, higher = longer survival
How it was run: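 Transplanted-tumor mice were given test agent; controls received vehicle only. Survival readings from the two groups were divided (treated over control).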

[1] = dose: 50.0 mg/kg/injection, schedule: Q04DX002 (ip), vehicle: saline with Tween-80
[2] = dose: 100.0 mg/kg/injection, schedule: Q01DX009 (ip), vehicle: saline with Tween-80
[3] = dose: 100.0 mg/kg/injection, schedule: Q04DX002 (ip), vehicle: saline with Tween-80
[4] = dose: 200.0 mg/kg/injection, schedule: Q04DX002 (ip), vehicle: saline with Tween-80
[5] = dose: 100.0 mg/kg/injection, schedule: Q04DX003 (ip), vehicle: saline
[6] = dose: 100.0 mg/kg/injection, schedule: Q04DX003 (ip), vehicle: Klucel (hydroxypropylcellulose) (HPC)
[7] = dose: 200.0 mg/kg/injection, schedule: Q04DX003 (ip), vehicle: Klucel (hydroxypropylcellulose) (HPC)
[8] = dose: 400.0 mg/kg/injection, schedule: Q04DX003 (ip), vehicle: Klucel (hydroxypropylcellulose) (HPC)
[9] = dose: 100.0 mg/kg/injection, schedule: Q01DX001 (ip), vehicle: saline
[10] = dose: 400.0 mg/kg/injection, schedule: Q04DX002 (ip), vehicle: saline with Tween-80
[11] = dose: 200.0 mg/kg/injection, schedule: Q01DX009 (ip), vehicle: saline with Tween-80
[12] = dose: 100.0 mg/kg/injection, schedule: Q01DX009 (ip), vehicle: Klucel (hydroxypropylcellulose) (HPC)
[13] = dose: 200.0 mg/kg/injection, schedule: Q01DX009 (ip), vehicle: Klucel (hydroxypropylcellulose) (HPC)
[14] = dose: 400.0 mg/kg/injection, schedule: Q01DX009 (ip), vehicle: Klucel (hydroxypropylcellulose) (HPC)

Measured: T/C

Cc1ccccc1C(=O)C(C#N)c1ccccc1 (stereo not drawn)
inactive: dose: 25.0 mg/kg/injection, schedule: Q01DX009 (ip), vehicle: saline with Tween-80 103 % of control and 92 % of control | dose: 25.0 mg/kg/injection, schedule: Q04DX003 (ip), vehicle: saline with Tween-80 98 % of control | dose: 50.0 mg/kg/injection, schedule: Q01DX001 (ip), vehicle: saline with Tween-80 95 % of control | dose: 50.0 mg/kg/injection, schedule: Q01DX009 (ip), vehicle: saline with Tween-80 96 % of control and 103 % of control | [1] 97 % of control | dose: 50.0 mg/kg/injection, schedule: Q04DX003 (ip), vehicle: saline with Tween-80 102 % of control | dose: 100.0 mg/kg/injection, schedule: Q01DX001 (ip), vehicle: saline with Tween-80 90 % of control | [2] 113 % of control and 118 % of control | [3] 93 % of control and 111 % of control and 88 % of control | [4] 90 % of control

CCCCCNC(C)C(=O)c1ccccc1 (stereo not drawn)
inactive: dose: 12.5 mg/kg/injection, schedule: Q04DX003 (ip), vehicle: saline 87 % of control | dose: 25.0 mg/kg/injection, schedule: Q01DX009 (ip), vehicle: saline 92 % of control | dose: 25.0 mg/kg/injection, schedule: Q04DX003 (ip), vehicle: saline 94 % of control | dose: 50.0 mg/kg/injection, schedule: Q01DX009 (ip), vehicle: saline 100 % of control | dose: 50.0 mg/kg/injection, schedule: Q04DX003 (ip), vehicle: saline 94 % of control | [5] 97 % of control

Cn1cnc2c(C(F)(F)F)nc(N)nc21
inactive: [5] 94 % of control | dose: 200.0 mg/kg/injection, schedule: Q04DX003 (ip), vehicle: saline 102 % of control

CS(=O)(=O)CCC(C#N)(CCS(C)(=O)=O)c1ccccc1
inactive: [6] 110 % of control | [7] 100 % of control | [8] 102 % of control

COC(=O)c1cc2ccccc2c2c1OCN(C)C2
inactive: dose: 50.0 mg/kg/injection, schedule: Q01DX001 (ip), vehicle: saline 113 % of control | [9] 110 % of control

CCOC(=O)/C(C#N)=C/c1cccn1Cc1ccc2ccccc2c1
inactive: [3] 101 % of control | [4] 90 % of control | [10] 90 % of control

O=[N+]([O-])c1ccc(SC2=NCCCN2)c([N+](=O)[O-])c1
inactive: dose: 12.5 mg/kg/injection, schedule: Q04DX002 (ip), vehicle: Klucel (hydroxypropylcellulose) (HPC) 106 % of control | dose: 25.0 mg/kg/injection, schedule: Q04DX002 (ip), vehicle: Klucel (hydroxypropylcellulose) (HPC) 95 % of control

CC(=O)N1CC(n2cnc3c(N)ncnc32)CC1CO (stereo not drawn)
inactive: dose: 12.5 mg/kg/injection, schedule: Q04DX002 (ip), vehicle: saline with Tween-80 102 % of control | dose: 25.0 mg/kg/injection, schedule: Q04DX002 (ip), vehicle: saline with Tween-80 98 % of control | [1] 94 % of control

O/N=C/c1cccc(CC(O)(C(F)(F)F)C(F)(F)F)n1
inactive: [1] 103 % of control | dose: 100.0 mg/kg/injection, schedule: Q01DX001 (ip), vehicle: Klucel (hydroxypropylcellulose) (HPC) 98 % of control | [3] 88 % of control | dose: 200.0 mg/kg/injection, schedule: Q01DX001 (ip), vehicle: Klucel (hydroxypropylcellulose) (HPC) 98 % of control | [4] 109 % of control | dose: 400.0 mg/kg/injection, schedule: Q01DX001 (ip), vehicle: Klucel (hydroxypropylcellulose) (HPC) 87 % of control | [10] 106 % of control

COc1cc(OC)c(/C=C/c2c3ccccc3cc[n+]2C)c(OC)c1
inactive: dose: 0.78 mg/kg/injection, schedule: Q01DX009 (ip), vehicle: saline with Tween-80 100 % of control | dose: 1.56 mg/kg/injection, schedule: Q01DX009 (ip), vehicle: saline with Tween-80 97 % of control

CCC(=O)NC(N)=S
inactive: dose: 25.0 mg/kg/injection, schedule: Q01DX009 (ip), vehicle: Klucel (hydroxypropylcellulose) (HPC) 96 % of control | dose: 50.0 mg/kg/injection, schedule: Q01DX009 (ip), vehicle: Klucel (hydroxypropylcellulose) (HPC) 94 % of control

O=[N+]([O-])c1ccccc1NS(=O)(=O)c1ccccc1
inactive: [2] 95 % of control | dose: 100.0 mg/kg/injection, schedule: Q04DX003 (ip), vehicle: saline with Tween-80 93 % of control | [11] 96 % of control | dose: 200.0 mg/kg/injection, schedule: Q04DX003 (ip), vehicle: saline with Tween-80 97 % of control | dose: 400.0 mg/kg/injection, schedule: Q01DX009 (ip), vehicle: saline with Tween-80 98 % of control | dose: 400.0 mg/kg/injection, schedule: Q04DX003 (ip), vehicle: saline with Tween-80 97 % of control

C=CCc1ccccc1C
inactive: [9] 106 % of control | dose: 200.0 mg/kg/injection, schedule: Q01DX001 (ip), vehicle: saline 102 % of control | dose: 400.0 mg/kg/injection, schedule: Q01DX001 (ip), vehicle: saline 101 % of control

Cc1ccc(C)c(NC(=O)c2ccccc2Cl)c1
inactive: [12] 115 % of control | [6] 102 % of control | [13] 120 % of control | [7] 100 % of control | [14] 120 % of control | [8] 97 % of control

c1cc2cc3c(cc2c2c1CC1c4cc5c(cc4CCN1C2)OCO5)OCO3 (stereo not drawn)
inactive: [12] 103 % of control | [6] 101 % of control | [13] 97 % of control | [7] 97 % of control | [14] 97 % of control | [8] 94 % of control

CC(C)(C(Cl)Cl)S(=O)(=O)O (tested in a mixture with another compound)
inactive: dose: 9.0 mg/kg/injection, schedule: Q01DX001 (ip), vehicle: other 95 % of control | dose: 18.0 mg/kg/injection, schedule: Q01DX001 (ip), vehicle: other 106 % of control | dose: 37.0 mg/kg/injection, schedule: Q01DX001 (ip), vehicle: other 103 % of control | dose: 75.0 mg/kg/injection, schedule: Q01DX001 (ip), vehicle: other 98 % of control | dose: 75.0 mg/kg/injection, schedule: Q01DX009 (ip), vehicle: saline with Tween-80 107 % of control | dose: 75.0 mg/kg/injection, schedule: Q04DX003 (ip), vehicle: other 111 % of control | dose: 150.0 mg/kg/injection, schedule: Q01DX001 (ip), vehicle: other 101 % of control | dose: 150.0 mg/kg/injection, schedule: Q01DX009 (ip), vehicle: saline with Tween-80 105 % of control | dose: 150.0 mg/kg/injection, schedule: Q04DX003 (ip), vehicle: other 118 % of control | dose: 300.0 mg/kg/injection, schedule: Q01DX001 (ip), vehicle: other 113 % of control | dose: 300.0 mg/kg/injection, schedule: Q01DX009 (ip), vehicle: saline with Tween-80 102 % of control | dose: 300.0 mg/kg/injection, schedule: Q04DX003 (ip), vehicle: other 116 % of control

Cn1nc(NC(=O)C(F)(F)F)c2ncc(-c3ccccc3)nc21
inactive: [2] 96 % of control | [11] 96 % of control

CN(C)c1ccc(-c2nc3ccccn3c2N)cc1
inactive: dose: 3.13 mg/kg/injection, schedule: Q01DX009 (ip), vehicle: saline 95 % of control | dose: 6.25 mg/kg/injection, schedule: Q01DX009 (ip), vehicle: saline 92 % of control and 101 % of control | dose: 12.5 mg/kg/injection, schedule: Q01DX009 (ip), vehicle: saline 100 % of control and 114 % of control

O=C1NC(c2c(Cl)cccc2Cl)Nc2ccccc21 (stereo not drawn)
inactive: [6] 100 % of control | [7] 100 % of control | [8] 111 % of control
